In patent publication US10031129B2, “G-protein coupled receptor polypeptides involved in sensory transduction” (The Regents of the University of California, priority 1998, dated 2018):

What was measured:
[1] = target: T1, mammalian γ-opiod receptor (Homo sapiens, UniProt P35372); assay: ligand-induced changes in [Ca2+]i in control cells expressing γ-opiod/Gα15; type: cell-based; conditions: HEK-293 control cells; dependent on Gα15; rapid onset
T1 construct: expressed in transfected cells; host or cells: HEK-293 line expressing SV40 T-antigen; CMV-γ-opiod and TK-Gα15 constructs
T1 sequence (P35372 whole entry): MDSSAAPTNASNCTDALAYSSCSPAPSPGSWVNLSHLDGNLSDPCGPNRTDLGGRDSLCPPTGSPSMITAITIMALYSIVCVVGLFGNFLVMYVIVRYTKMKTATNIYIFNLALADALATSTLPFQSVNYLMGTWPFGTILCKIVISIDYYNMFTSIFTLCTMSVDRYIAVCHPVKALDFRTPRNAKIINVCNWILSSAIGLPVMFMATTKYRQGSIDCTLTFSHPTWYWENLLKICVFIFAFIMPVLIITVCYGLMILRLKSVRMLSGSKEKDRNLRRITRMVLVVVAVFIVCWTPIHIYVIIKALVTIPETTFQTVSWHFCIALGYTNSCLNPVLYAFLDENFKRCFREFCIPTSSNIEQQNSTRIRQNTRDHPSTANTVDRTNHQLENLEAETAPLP
Source text: (§1) To determine the ligand selectivity of GPCR-B4, expression in heterologous cells was used. One issue for GPCR expression in heterologous cells is determining how to couple the GPCR to a G-protein and an appropriate signaling pathway. In this example, the G-protein subunit Gα15 was used, which promiscuously couples a wide range of GPCRs to the phospholipase C-mediated signaling pathway (Offermans & Simon, J. Biol. Chem. 270:15175-15180 (1995)). Consequently, receptor activity can be effectively measured by recording ligand-induced changes in [Ca^2+]i using fluorescent Ca^2+-indicator dyes and fluorometric imaging.
(§2) To insure expression of GPCR-B4 in the plasma membrane, a variety of cell lines and expression vectors were tested. […] An HEK-293 line expressing SV40 T-antigen was co-transfected with a TK-Gα15, CMV-γ-opiod and a pEAK-10 episomal vector (Edge Biosystems) containing a EF1a-[B4-GPCR]construct. Transfection efficiencies were determined using CMV-GFP constructs.

GPCR-B4 = target: T2, GPCR-B4 (Rattus norvegicus, UniProt Q9Z0R7); assay: ligand-induced changes in [Ca2+]i in HEK-293 cells expressing B4/Gα15 (fluorescent Ca2+-indicator dyes, fluorometric imaging); type: cell-based; conditions: HEK-293 line expressing SV40 T-antigen; B4 receptor dependent
T2 construct: expressed in transfected cells; host or cells: HEK-293 line expressing SV40 T-antigen; pEAK-10 episomal vector (Edge Biosystems) with EF1a-[B4-GPCR] construct; TK-Gα15
T2 sequence (Q9Z0R7 20-843): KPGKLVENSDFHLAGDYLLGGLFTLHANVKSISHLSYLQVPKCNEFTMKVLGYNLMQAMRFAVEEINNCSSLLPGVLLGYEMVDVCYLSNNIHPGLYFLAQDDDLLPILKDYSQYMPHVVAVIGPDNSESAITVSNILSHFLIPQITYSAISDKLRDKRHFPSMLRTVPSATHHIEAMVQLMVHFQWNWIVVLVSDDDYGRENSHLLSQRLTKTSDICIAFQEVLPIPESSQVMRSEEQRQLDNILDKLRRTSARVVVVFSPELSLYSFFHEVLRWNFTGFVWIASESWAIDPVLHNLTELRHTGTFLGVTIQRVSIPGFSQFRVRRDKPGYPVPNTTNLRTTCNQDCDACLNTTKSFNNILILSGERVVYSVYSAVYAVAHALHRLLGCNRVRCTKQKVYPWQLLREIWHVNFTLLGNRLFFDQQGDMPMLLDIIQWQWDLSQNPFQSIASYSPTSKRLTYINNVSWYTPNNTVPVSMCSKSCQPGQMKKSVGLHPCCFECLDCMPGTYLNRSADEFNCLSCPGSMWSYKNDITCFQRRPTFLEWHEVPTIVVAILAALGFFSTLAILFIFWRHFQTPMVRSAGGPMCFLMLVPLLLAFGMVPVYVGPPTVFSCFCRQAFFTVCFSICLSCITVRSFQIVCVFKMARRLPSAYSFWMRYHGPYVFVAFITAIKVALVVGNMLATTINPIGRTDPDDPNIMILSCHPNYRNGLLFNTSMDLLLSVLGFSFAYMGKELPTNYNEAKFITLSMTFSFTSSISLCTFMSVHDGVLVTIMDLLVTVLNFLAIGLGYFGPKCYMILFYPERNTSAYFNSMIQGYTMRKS
Source text: as §1, §2

| Compound | response (change in [Ca2+]i) of control cells expressing γ-opiod/Gα15 [1] | response (change in [Ca2+]i) of cells expressing B4/Gα15 or B4/Gα15/γ-opiod (GPCR-B4) |
| --- | --- | --- |
| C[C@@H](NC(=O)[C@@H](N)Cc1ccc(O)cc1)C(=O)NCC(=O)N(C)[C@@H](Cc1ccccc1)C(=O)NCCO [DAMGO] | respond robustly | – |
| NC(=S)Nc1ccccc1 [PTC, phenylthiocarbamide] | – | respond |
